Measured values from patent US20240287108A1, “nSMASE2 INHIBITOR PRODRUGS WITH ENHANCED ORAL AND BRAIN EXPOSURES” (The Johns Hopkins University, priority 2021, published 2024).
Converted amounts (≈) assume the structure as drawn. “Also recorded” adds a separate entry of the source. Like-named read-outs stand apart in the source and are kept apart here.

Legend:
[1] = in vitro stability in CES1−/− mouse plasma; format: in vitro ADME; conditions: CES1−/− mouse plasma, 10 μM, 37° C.
Procedure: All synthesized prodrugs were next screened for in vitro stability in carboxylesterase 1 knockout (CES1^−/−) mouse plasma, as well as CES1^−/− mouse brain and liver homogenates (Table 2-1). We have previously reported that CES1^−/− mouse model recapitulates human prodrug metabolism. Tenora et al., 2019.
Zimmermann et al., 2018. For the tissue homogenates, washed tissues were diluted 10-fold in 0.1 M potassium phosphate buffer and homogenized using a probe sonicator. To evaluate the stability of the intact prodrug over time, each of the crude homogenates and plasma were aliquoted to 1 mL and then spiked with a final assay concentration of 10 μM of each prodrug followed by incubation in an orbital shaker at 37° C. for 1 h (in triplicate). Sample from each incubation at predetermined time points (0 min, and 1 h) was quenched with three volumes of acetonitrile containing the internal standard (IS; losartan: 0.5 μm). Samples were vortex-mixed for 30 secs and centrifuged at 10,000×g for 10 min at 4° C. Disappearance of intact prodrugs from these samples were performed on a Dionex ultra-high-performance LC system coupled with Q Exactive Focus orbitrap mass spectrometer (Thermo Fisher Scientific Inc., Waltham MA). The separation of analytes was achieved using the Agilent Eclipse Plus column (100×2.1 mm i.d.; maintained at 35° C.) packed with a 1.8 μm C18 stationary phase. The mobile phase consisted of 0.1% formic acid in water and 0.1% formic acid in acetonitrile. Pumps were operated at a flow rate of 0.4 mL/min for 9 min using gradient elution. The mass spectrometer controlled by Xcalibur software 4.0.27.13 (Thermo Scientific) was operated with a heated electrospray ionization (HESI) ion source in positive ionization mode. Quantification of the prodrugs were performed in the full-scan mode (from m/z 50 to 1600) by comparing t=0 samples with t=60 min samples.

[2] = molecular target: T1, nSMase2 (Mus musculus, UniProt Q9JJY3); assay: nSMase2 activity in striata of IL-1β-injected mice; format: in vivo; conditions: P18 3 and 10 mg/kg DPTIP equivalent PO 30 min before intrastriatal IL-1β; 4 h
T1 construct: the striata dissected and analyzed for nSMase2 activity using a modification of previously published protocols; from tissue; host or cells: striata of GFAP-EGFP transgenic mice, homogenised and sonicated lysate
T1 sequence (Q9JJY3 1-655): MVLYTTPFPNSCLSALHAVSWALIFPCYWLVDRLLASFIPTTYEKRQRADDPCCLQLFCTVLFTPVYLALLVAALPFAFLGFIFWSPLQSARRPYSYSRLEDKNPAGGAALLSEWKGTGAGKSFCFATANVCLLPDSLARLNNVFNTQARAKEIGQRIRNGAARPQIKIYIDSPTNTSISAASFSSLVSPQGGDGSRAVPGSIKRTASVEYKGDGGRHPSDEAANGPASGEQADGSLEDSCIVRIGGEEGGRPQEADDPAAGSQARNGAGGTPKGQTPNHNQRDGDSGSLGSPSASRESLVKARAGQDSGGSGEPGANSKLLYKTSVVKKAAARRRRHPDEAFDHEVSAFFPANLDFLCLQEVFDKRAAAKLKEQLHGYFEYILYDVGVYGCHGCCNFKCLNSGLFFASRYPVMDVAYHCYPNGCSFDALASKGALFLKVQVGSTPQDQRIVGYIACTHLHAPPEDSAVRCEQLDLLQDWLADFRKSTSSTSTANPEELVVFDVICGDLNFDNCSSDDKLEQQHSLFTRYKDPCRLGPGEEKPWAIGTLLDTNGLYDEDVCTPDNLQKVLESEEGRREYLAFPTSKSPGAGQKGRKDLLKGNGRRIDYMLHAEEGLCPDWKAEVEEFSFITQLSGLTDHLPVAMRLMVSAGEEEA
Source text: We have previously reported that nSMase2 regulates the secretion of extracellular vesicles from astrocytes in response to a focal inflammatory brain lesion. Rojas et al., 2018. Striatal injection of IL-1β in mice expressing GFAP-EGFP in astroglia evokes the release of GFP-labelled EVs that rapidly enter into plasma and target multiple organ systems. Dickens et al., 2017. We used this mouse model to evaluate the ability of P18 to inhibit EV release by the inhibition of nSMase2 activity in vivo. […] Interleukin-1β-injected mice, orally pre-dosed with P18 (30 min prior) were euthanized 4-hours post-IL-1β injection. GFP labeled (GFP+) EVs were quantified in plasma and nSMase2 activity was measured in the brain striata.
Rojas et al., 2018; Figuera-Losada et al., 2015. Briefly, mice striata were homogenized in ice-cold Tris-HCl buffer (0.1 M, pH 7.5) containing 250 mM sucrose, 10 mM EGTA (Research Products International, Prospect, IL), 100 μM sodium molybdate and protease inhibitors (Cell Signaling, Danvers, MA) using Biomasher II and then sonicated using Kontes' Micro Ultrasonic Cell Disrupter (three pulses of 15 s duration on ice with 30 s between pulses). […] At the end of the reaction period, the relative fluorescence units were measured at Ex 530 nm, Em 590 nm. […]

[3] = solubility of P18 in water and in Soluplus®/Labrasol® micelle formulation; format: physicochemical
Source text: In contrast, the solubility of the prodrugs, e.g., P18 in the micelle formulation were improved as presented below.

CCC1CC(N2CCCCC2)CC(CC)N1C(=O)Oc1c(OC)cc(-c2nc(-c3ccccc3)c(-c3cccs3)[nH]2)cc1OC (centres unmarked) [Compound P18, 2,6-Dimethoxy-4-(5-phenyl-4-(thiophen-2-yl)-1H-imidazol-2-yl)phenyl 2′,6′-diethyl-[1,4′-bipiperidine]-1′-carboxylate]
Stability in mouse (% remaining at 1h) Mean + Std Error, Plasma [1]: 92 ± 7%
nSMase2 activity in brain striata [2]: attenuated nSMase2 activity; also recorded: inhibition of brain nSMase2 activity; also recorded: reduced nSMase2 activity increased in response to IL-1β in a dose dependent manner; also recorded: significant inhibition of nSMase2 activity
solubility ([3]; Labrasol micelles in water, aqueous with cosolvent or surfactant or cyclodextrin, solid dispersion in Labrasol®, hydrated with water, read-out: solubility in micelle formulation): 1700 µg/mL (≈ 2700 µM)
solubility ([3]; Soluplus micelles in water, aqueous with cosolvent or surfactant or cyclodextrin, solid dispersion in Soluplus®, hydrated with water, read-out: solubility in micelle formulation): 1700 µg/mL (≈ 2700 µM)
solubility ([3]; water, read-out: solubility in water): < 500 µg/mL
